#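 Interpolation was linear, between the two tested concentrations surrounding the appropriate level; five concentrations were tested over 48 hours in 96-well plates. GI50 = concentration required for 50% inhibition of growth.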 Calls of active or inactive are those of the source. Rule as the data show it: active = GI50 up to about 1.1 µM and inactive = higher.
# Legend:
# Experiment in all cases: NCI anticancer screen, dose series, 48 h
# 786-0 = tested on: 786-0
# CAKI-1 = tested on: CAKI-1
# CCRF-CEM = tested on: CCRF-CEM
# DU-145 = tested on: DU-145
# HOP-62 = tested on: HOP-62
# KM12 = tested on: KM12
# LOX IMVI = tested on: LOX IMVI
# MCF7 = tested on: MCF7
# MDA-N = tested on: MDA-N
# MOLT-4 = tested on: MOLT-4
# NCI-H226 = tested on: NCI-H226
# NCI-H23 = tested on: NCI-H23
# NCI-H522 = tested on: NCI-H522
# NCI/ADR-RES = tested on: NCI/ADR-RES
# OVCAR-3 = tested on: OVCAR-3
# RXF 393 = tested on: RXF 393
# SN12C = tested on: SN12C
# TK-10 = tested on: TK-10
# UACC-62 = tested on: UACC-62
SMILES,GI50 (786-0),GI50 (CAKI-1),GI50 (CCRF-CEM),GI50 (DU-145),GI50 (HOP-62),GI50 (KM12),GI50 (LOX IMVI),GI50 (MCF7),GI50 (MDA-N),GI50 (MOLT-4),GI50 (NCI-H226),GI50 (NCI-H23),GI50 (NCI-H522),GI50 (NCI/ADR-RES),GI50 (OVCAR-3),GI50 (RXF 393),GI50 (SN12C),GI50 (TK-10),GI50 (UACC-62)
Nc1cc(O)c2c(c1O)C(=O)C=CC2=O,7.89 µM (inactive),18.6 µM (inactive),2.19 µM (inactive),18.2 µM (inactive),27.3 µM (inactive),19.6 µM (inactive),5.58 µM (inactive),7.13 µM (inactive),6.1 µM (inactive),4.66 µM (inactive),67.1 µM (inactive),8.99 µM (inactive),5.9 µM (inactive),10 µM (inactive),2.64 µM (inactive),6.93 µM (inactive),16.1 µM (inactive),26.6 µM (inactive),11.4 µM (inactive)
C=CCC1(OC(C)=O)C2OC(=O)C1(O)OCC2O (stereo unspecified),> 100 µM (inactive),> 100 µM (inactive),> 100 µM (inactive),> 100 µM (inactive),> 100 µM (inactive),> 100 µM (inactive),> 100 µM (inactive),> 100 µM (inactive),> 100 µM (inactive),> 100 µM (inactive),> 100 µM (inactive),> 100 µM (inactive),> 100 µM (inactive),> 100 µM (inactive),> 100 µM (inactive),> 100 µM (inactive),> 100 µM (inactive),> 70.8 µM (inactive),> 59.3 µM (inactive)
O=c1c(-c2nc3ccccc3c3ccccc3c2=O)nc2ccccc2c2ccccc12,36 µM (inactive),38.9 µM (inactive),28.1 µM (inactive),80.9 µM (inactive),34.8 µM (inactive),38.3 µM (inactive),32.1 µM (inactive),38 µM (inactive),24.3 µM (inactive),34.6 µM (inactive),> 100 µM (inactive),40 µM (inactive),37.1 µM (inactive),34 µM (inactive),28.4 µM (inactive),26.8 µM (inactive),28.6 µM (inactive),48.4 µM (inactive),30.2 µM (inactive)
O=C(NC(Nc1ccc(F)cc1)(C(F)(F)F)C(F)(F)F)C(C(F)(F)F)C(F)(F)F,> 54.1 µM (inactive),> 54.7 µM (inactive),3.13 µM (inactive),9.93 µM (inactive),99.1 µM (inactive),0.908 µM (active),0.617 µM (active),16.7 µM (inactive),9.84 µM (inactive),4.86 µM (inactive),50.5 µM (inactive),18.1 µM (inactive),13.2 µM (inactive),4.46 µM (inactive),44.3 µM (inactive),33.3 µM (inactive),50.2 µM (inactive),> 24.9 µM (inactive),0.199 µM (active)
O=C(CSc1nc2ccc(I)cc2c(=O)n1Cc1ccccc1)N/N=C/c1ccccc1,11.8 µM (inactive),4.01 µM (inactive),40.9 µM (inactive),39.3 µM (inactive),6.82 µM (inactive),48.8 µM (inactive),41.7 µM (inactive),25.2 µM (inactive),> 100 µM (inactive),58.1 µM (inactive),29.9 µM (inactive),17.5 µM (inactive),18.1 µM (inactive),23.8 µM (inactive),11.6 µM (inactive),8.13 µM (inactive),66.1 µM (inactive),15.2 µM (inactive),39.2 µM (inactive)
CCOC(=O)/C=C(\C(=O)OCC)n1ccc(=O)[nH]c1=O,4.85 µM (inactive),1.91 µM (inactive),2.16 µM (inactive),31.4 µM (inactive),26.9 µM (inactive),17.9 µM (inactive),12.8 µM (inactive),9.2 µM (inactive),22.6 µM (inactive),3.44 µM (inactive),13.3 µM (inactive),16.7 µM (inactive),0.684 µM (active),26.2 µM (inactive),13.2 µM (inactive),10.6 µM (inactive),11.8 µM (inactive),13.3 µM (inactive),16.4 µM (inactive)
COc1ccc(N2C(=O)C3c4[nH]c5ccc([N+](=O)[O-])cc5c4C4CCC(C(C)(C)C)CC4C3C2=O)cc1 (stereo unspecified),11.4 µM (inactive),18.3 µM (inactive),4.51 µM (inactive),32.8 µM (inactive),24.4 µM (inactive),6.5 µM (inactive),15.2 µM (inactive),4.45 µM (inactive),20.3 µM (inactive),14.3 µM (inactive),28 µM (inactive),6.53 µM (inactive),19.9 µM (inactive),9.62 µM (inactive),7.29 µM (inactive),3.33 µM (inactive),15.2 µM (inactive),25.2 µM (inactive),24 µM (inactive)
COc1ccc(/C=C2\N=C(N3CCCC(CO)C3)NC2=O)cc1 (stereo unspecified),> 100 µM (inactive),> 100 µM (inactive),> 100 µM (inactive),> 100 µM (inactive),> 100 µM (inactive),> 100 µM (inactive),> 100 µM (inactive),> 100 µM (inactive),> 100 µM (inactive),> 100 µM (inactive),> 100 µM (inactive),> 100 µM (inactive),> 100 µM (inactive),> 100 µM (inactive),> 100 µM (inactive),> 100 µM (inactive),> 100 µM (inactive),> 100 µM (inactive),> 100 µM (inactive)
COc1cc(/C=C2\Sc3scc(-c4cccc([N+](=O)[O-])c4)[n+]3C2=O)cc(OC)c1OC,10.4 µM (inactive),5.98 µM (inactive),44.9 µM (inactive),15.2 µM (inactive),16.6 µM (inactive),17.8 µM (inactive),10.7 µM (inactive),4.15 µM (inactive),11.9 µM (inactive),3.21 µM (inactive),5.2 µM (inactive),15.1 µM (inactive),4.67 µM (inactive),17.4 µM (inactive),15.8 µM (inactive),12.5 µM (inactive),18.1 µM (inactive),10.7 µM (inactive),11.3 µM (inactive)
N#Cc1c(-c2ccccc2)cc(-c2ccc(Cl)cc2)[nH]c1=S,53.3 µM (inactive),51.4 µM (inactive),26.4 µM (inactive),53.6 µM (inactive),50.1 µM (inactive),58.5 µM (inactive),25.5 µM (inactive),23.4 µM (inactive),34.5 µM (inactive),28.1 µM (inactive),25.6 µM (inactive),4.06 µM (inactive),27.4 µM (inactive),39.4 µM (inactive),38.8 µM (inactive),34 µM (inactive),39.5 µM (inactive),45.9 µM (inactive),27.9 µM (inactive)
Oc1cccc(-c2cn3cc(Cl)ccc3n2)c1,66.2 µM (inactive),70 µM (inactive),7.03 µM (inactive),31 µM (inactive),> 100 µM (inactive),37.2 µM (inactive),45.7 µM (inactive),17.3 µM (inactive),39.8 µM (inactive),32.7 µM (inactive),91.4 µM (inactive),51.8 µM (inactive),15.9 µM (inactive),34.5 µM (inactive),31.7 µM (inactive),23.1 µM (inactive),57.1 µM (inactive),35.4 µM (inactive),35.1 µM (inactive)
Cc1cccc2c1C(=O)C(C1OC(=O)c3ccccc31)C2 (stereo unspecified),> 100 µM (inactive),> 100 µM (inactive),> 100 µM (inactive),> 100 µM (inactive),> 100 µM (inactive),> 100 µM (inactive),> 100 µM (inactive),> 100 µM (inactive),> 100 µM (inactive),> 100 µM (inactive),> 100 µM (inactive),> 100 µM (inactive),> 100 µM (inactive),> 100 µM (inactive),> 100 µM (inactive),45.6 µM (inactive),> 100 µM (inactive),> 100 µM (inactive),45.7 µM (inactive)
CCOC(=O)/C(C(=O)Nc1cccc(C(F)(F)F)c1)=C(/N)N1CCOCC1,> 100 µM (inactive),> 100 µM (inactive),> 100 µM (inactive),> 100 µM (inactive),> 100 µM (inactive),> 100 µM (inactive),> 100 µM (inactive),> 100 µM (inactive),> 100 µM (inactive),> 100 µM (inactive),86.9 µM (inactive),> 100 µM (inactive),> 100 µM (inactive),> 100 µM (inactive),> 100 µM (inactive),> 100 µM (inactive),> 100 µM (inactive),> 100 µM (inactive),> 100 µM (inactive)
CC(=O)OCC1OC(OC2CC3C(C)(C)C(=O)CC[C@]3(C)C3CC[C@]45C[C@]4(CCC5[C@@H](C)CC(O)C(O)C(C)(C)O)[C@]23C)C(O)C(O)C1O (stereo partly specified),13.6 µM (inactive),17.1 µM (inactive),4.13 µM (inactive),17.1 µM (inactive),19.3 µM (inactive),6.43 µM (inactive),3.72 µM (inactive),4.78 µM (inactive),10.7 µM (inactive),3.71 µM (inactive),16.5 µM (inactive),17.5 µM (inactive),10.6 µM (inactive),18.3 µM (inactive),12.7 µM (inactive),10 µM (inactive),13.4 µM (inactive),14.6 µM (inactive),10.5 µM (inactive)
